Measured values reported in PubChem BioAssay AID2060909 (Molecular Pharmacology Branch, DTP, NCI, 2025).
Blank lines part the entries; values can stand above or below the compound they belong to.

System: 362531-283-R-J2-PDC complex spheroid viability
Assay: Anticancer human tumor 362531-283-R-J2-PDC patient-derived colon adenocarcinoma cell line growth inhibition [RAS]
Details: for IC50: curve of first compound; for viability, T/C: stronger effect = lower value
Text: RAS pathway inhibitors in Combinations in Complex Spheroids
A high-throughput screen of multi-cell type tumor spheroids was designed to identify active combinations of RAS pathway inhibitors and targeted small molecules. Complex spheroids include a stromal component modeled by human endothelial cells (HUVEC) and fibroblasts modeled by human mesenchymal stem cells (MSCs). The concentration ranges selected for each drug and investigational agent were based upon clinically achievable concentrations if the clinical Cmax of the agent was known.
Compounds. The drugs and investigational agents: abemaciclib (NSC768073), cobimetinib (NSC768068), divarasib (GDC6063, NSC841802), docetaxel (NSC628503), GDC-1971 (RLY-1971, NSC841576), gemcitabine (NSC613327), inavolisib (NSC800729), ipatasertib (NSC767898), KB-0742 (NSC834161), MRTX-1133 (NSC836407), osimertinib (NSC779217), RMC-4630 (NSC839698), RMC-6236 (NSC851965), RMC-6291 (NSC852671), Ro-3306 (NSC812927), sapanisertib (NSC764658), SN-38 (NSC673596), staurosporine (NSC755774), SY5609 (NSC837396), and tovorafenib (DAY101, NSC766906), were obtained from the National Cancer Institute (NCI) Developmental Therapeutics Program Chemical Repository. The FDA-approved anticancer drug set is available from the NCI Developmental Therapeutics Program. […] The stock solutions were prepared in dimethyl sulfoxide (DMSO, Sigma-Aldrich, St. Louis, MO, cat. D2650) at 800-fold the tested concentration and stored at -70 degrees C prior to their use. All drugs and investigational agents were tested over a range starting from a high concentration at or near the clinical Cmax and decreasing in half-log increments. If the clinical Cmax for an agent had not been determined, the highest concentration tested was 10 microM.
Cell Culture. All cells were maintained in an incubator at 37 degrees C and 5% CO2 with 95% humidity. The PDC lines were cultured according to standard operating procedures established by the NCI PDMR. All PDCs were thawed and cultured in Matrigel-coated flasks prepared with a working solution of 1X Ham's F-12 nutrient mix, without supplementation (Invitrogen, Waltham, MA, cat. 11765054), 100 U/mL penicillin-streptomycin (Invitrogen, cat. 15140122), and 2.5% Matrigel (Corning Inc., Corning, NY, cat. 354248) for the first three passages. The 362531-283-R-J2-PDC and 782815-120-R-J1-PDC lines were cultured in 6C/Colon 1B media, which includes advanced DMEM/F-12 (Thermo Fisher Scientific, cat. 12634028), 10 mM HEPES (Thermo Fisher Scientific, cat. 15630080), 1X GlutaMAX supplement (Thermo Fisher Scientific, cat. 35050061), 0.1 mg/mL primocin (InvivoGen, San Diego, CA, cat. ant-pm-2), 10% defined fetal bovine serum, heat inactivated (HyClone Laboratories Inc., Logan, UT, cat. SH30070.03HI), 50% L-WRN conditioned media (ATCC, cat. CRL-3276), 1.25 mM N-Acetyl-L-cysteine (Sigma-Aldrich, cat. A9165), 10 mM nicotinamide (Sigma-Aldrich, cat. N0636), 1X B-27 supplement (Thermo Fisher Scientific, cat. 17504044), 1X N-2 supplement (Thermo Fisher Scientific, cat. 17502048), 50 ng/mL human EGF (Thermo Fisher Scientific, cat. PHG0311), and 10 microM Y-27632 dihydrochloride (Tocris Bioscience, cat. 1254). The K12877-001-R-J1-PDC line was cultured in 6I media, which includes all 6C/Colon 1B media plus 10 ng/mL human FGF-10 (PeproTech, cat. 100-26), 1 ng/mL human FGF-2 (PeproTech, cat. 100-18B), 1 µM prostaglandin E2 (Tocris Bioscience, cat. 2296), […] hydrocortisone (Sigma-Aldrich, cat. H4001), and […] bovine insulin (Sigma-Aldrich, cat. I6634). The K86415-001-R-J1-PDC line was cultured in 6D media, which includes all 6C/Colon 1B media components minus the L-WRN conditioned media. The 485176-168-R4-J1-PDC was cultured in PANC media, which includes all 6C/Colon 1B media plus 100 ng/mL human FGF-10 (PeproTech, cat. 100-26), 500 nM SB-431542 (Selleckchem, cat. S1067), and 10 nM gastrin (Tocris Bioscience, cat. 3006). […]

[1] = second compound 0.000949 µM, first compound 0.00316 µM
[2] = second compound 0.000949 µM, first compound 0.01 µM
[3] = second compound 0.000949 µM, first compound 0.0316 µM
[4] = second compound 0.000949 µM, first compound 0.1 µM
[5] = second compound 0.000949 µM, first compound 0.316 µM
[6] = second compound 0.000949 µM, first compound 1 µM
[7] = second compound 0.003 µM, first compound 0.00316 µM
[8] = second compound 0.003 µM, first compound 0.01 µM
[9] = second compound 0.003 µM, first compound 0.0316 µM
[10] = second compound 0.003 µM, first compound 0.1 µM
[11] = second compound 0.003 µM, first compound 0.316 µM
[12] = second compound 0.003 µM, first compound 1 µM
[13] = second compound 0.00949 µM, first compound 0.00316 µM
[14] = second compound 0.00949 µM, first compound 0.01 µM
[15] = second compound 0.00949 µM, first compound 0.0316 µM
[16] = second compound 0.00949 µM, first compound 0.1 µM
[17] = second compound 0.00949 µM, first compound 0.316 µM
[18] = second compound 0.00949 µM, first compound 1 µM
[19] = second compound 0.03 µM, first compound 0.00316 µM
[20] = second compound 0.03 µM, first compound 0.01 µM
[21] = second compound 0.03 µM, first compound 0.0316 µM
[22] = second compound 0.03 µM, first compound 0.1 µM
[23] = second compound 0.03 µM, first compound 0.316 µM
[24] = second compound 0.03 µM, first compound 1 µM
[25] = second compound 0.0949 µM, first compound 0.00316 µM
[26] = second compound 0.0949 µM, first compound 0.01 µM
[27] = second compound 0.0949 µM, first compound 0.0316 µM
[28] = second compound 0.0949 µM, first compound 0.1 µM
[29] = second compound 0.0949 µM, first compound 0.316 µM
[30] = second compound 0.0949 µM, first compound 1 µM
[31] = second compound 0.3 µM, first compound 0.00316 µM
[32] = second compound 0.3 µM, first compound 0.01 µM
[33] = second compound 0.3 µM, first compound 0.0316 µM
[34] = second compound 0.3 µM, first compound 0.1 µM
[35] = second compound 0.3 µM, first compound 0.316 µM
[36] = second compound 0.3 µM, first compound 1 µM
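Also: spheroids exposed to the agents for 7 days before readout.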
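For viability, T/C in this document: luminescence viability as percent of DMSO vehicle control wells.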

IC50 (second compound 0.000949 µM): 523 nM
IC50 (second compound 0.003 µM): 514 nM
IC50 (second compound 0.00949 µM): 454 nM
IC50 (second compound 0.03 µM): 447 nM
IC50 (second compound 0.0949 µM): 72 nM
IC50 (second compound 0.3 µM): < 3.16 nM
Compound: O=C(c1ccc(F)c(F)c1Nc1ccc(I)cc1F)N1CC(O)([C@@H]2CCCCN2)C1 + CCn1c(-c2cc(N3CCN(C)CC3)cnc2C(C)OC)c2c3cc(ccc31)-c1csc(n1)CC(NC(=O)C1CC1C)C(=O)N1CCCC(N1)C(=O)OCC(C)(C)C2
viability, T/C [1]: 93%
viability, T/C [2]: 105%
viability, T/C [3]: 85.6%
viability, T/C [4]: 80.9%
viability, T/C [5]: 74.8%
viability, T/C [6]: 23.1%
viability, T/C [7]: 87.8%
viability, T/C [8]: 101%
viability, T/C [9]: 92%
viability, T/C [10]: 76.4%
viability, T/C [11]: 76%
viability, T/C [12]: 20.3%
viability, T/C [13]: 98.4%
viability, T/C [14]: 94.7%
viability, T/C [15]: 81.4%
viability, T/C [16]: 82.6%
viability, T/C [17]: 73.6%
viability, T/C [18]: 4.71%
viability, T/C [19]: 87.4%
viability, T/C [20]: 75.7%
viability, T/C [21]: 82%
viability, T/C [22]: 75.4%
viability, T/C [23]: 69.1%
viability, T/C [24]: 5.79%
viability, T/C [25]: 72.8%
viability, T/C [26]: 96.2%
viability, T/C [27]: 58.1%
viability, T/C [28]: 49.3%
viability, T/C [29]: 3.89%
viability, T/C [30]: 3.06%
viability, T/C [31]: 28.9%
viability, T/C [32]: 28.4%
viability, T/C [33]: 15.1%
viability, T/C [34]: 3.3%
viability, T/C [35]: 3.48%
viability, T/C [36]: 3.15%

IC50 (second compound 0.000949 µM): > 1000 nM
IC50 (second compound 0.003 µM): > 1000 nM
IC50 (second compound 0.00949 µM): > 1000 nM
IC50 (second compound 0.03 µM): > 1000 nM
IC50 (second compound 0.0949 µM): > 1000 nM
IC50 (second compound 0.3 µM): < 3.16 nM
Compound: C=CC(=O)N1CCN(c2nc(OCC3CCCN3C)nc3c(F)c(-c4nc(N)cc(C)c4C(F)(F)F)c(Cl)cc23)C(C)C1 (centres undefined) + CCn1c(-c2cc(N3CCN(C)CC3)cnc2C(C)OC)c2c3cc(ccc31)-c1csc(n1)CC(NC(=O)C1CC1C)C(=O)N1CCCC(N1)C(=O)OCC(C)(C)C2
viability, T/C [1]: 101%
viability, T/C [2]: 100%
viability, T/C [3]: 107%
viability, T/C [4]: 92.5%
viability, T/C [5]: 94.3%
viability, T/C [6]: 103%
viability, T/C [7]: 107%
viability, T/C [8]: 103%
viability, T/C [9]: 97%
viability, T/C [10]: 92%
viability, T/C [11]: 104%
viability, T/C [12]: 91.7%
viability, T/C [13]: 93.7%
viability, T/C [14]: 108%
viability, T/C [15]: 104%
viability, T/C [16]: 99.1%
viability, T/C [17]: 108%
viability, T/C [18]: 106%
viability, T/C [19]: 87.8%
viability, T/C [20]: 104%
viability, T/C [21]: 86.8%
viability, T/C [22]: 81.1%
viability, T/C [23]: 95.7%
viability, T/C [24]: 101%
viability, T/C [25]: 88%
viability, T/C [26]: 87.5%
viability, T/C [27]: 81.2%
viability, T/C [28]: 80.3%
viability, T/C [29]: 75.5%
viability, T/C [30]: 90.5%
viability, T/C [31]: 43%
viability, T/C [32]: 57%
viability, T/C [33]: 41.2%
viability, T/C [34]: 45.9%
viability, T/C [35]: 45.9%
viability, T/C [36]: 35%
